Laboratory results from patent US9194872B2, “Potentiation of nanopharyngeal cancer radiotherapy by inhibitors of leukemia inhibitory factor” (Chang Gung University, priority 2013, dated 2015).

Tests used:
[1] = test system: TW06 cell transfected with firefly luciferase 2 reporter gene; assay: Tumor growth of mouse with intratumoral injection and radiation in 7 Gy; format: in vivo, NOD/SCID mouse; conditions: twice per week, 4 weeks, LIF 150-200 ng, sLIFR 1-2 μg, radiation 7 Gy following first injection, FIGS. 5A, 5B
Method: A TW06 cell transfected with firefly luciferase 2 reporter gene was subcutaneously injected into the thigh of a 7-week-old NOD/SCID mouse. Until the tumor on the thigh was grown to a volume of 60-100 mm^3, PBS, leukemia inhibitory factor (150-200 ng, twice per week, 4 weeks), or a soluble leukemia inhibitory factor receptor (1-2 μg, twice per week, 4 weeks) was intratumorally injected into the mouse, and then radiation in a dose of 7 Gy were emitted to the mouse following the first injection. Finally, the mouse's tumor was observed, and its activity and volume were detected by an in vivo imaging system at a certain time point after the emission.

[2] = test system: TW06 cell transfected with firefly luciferase 2 reporter gene; assay: Tumor growth of mouse with intratumoral injection (in vivo imaging system); design: species or system NOD/SCID mouse; conditions: twice per week, 4 weeks, LIF 150-200 ng, sLIFR 1-2 μg, compared with PBS, FIGS. 3B, 3C
Method: In addition, a TW06 cell transfected with firefly luciferase 2 reporter gene was subcutaneously injected into the thigh of a 7-week-old NOD/SCID (non-obese diabetic/severe-combined immunodeficient) mouse. Until the tumor on the mouse's thigh was grown to a volume of 50 mm^3, PBS, leukemia inhibitory factor (150-200 ng, twice per week, 4 weeks), or a soluble leukemia inhibitory factor receptor (1-2 μg, twice per week, 4 weeks) was intratumorally injected into the mouse. Finally, the mouse's tumor was observed, and its activity and volume were detected by an in vivo imaging system at a certain time point after the injection.

[3] = test system: CNE1 cells; assay: Resistance of nasopharyngeal cancer cell to radiation in various doses (xCelligence); format: cell-based; conditions: LIF 10 ng/ml; for IC50 value of the radiation for the treated cells: FIG. 4B
Method: Firstly, 6×10^3 CNE1 cells were seeded. After cultivated at 37° C. overnight, the seeded cells were treated with PBS and leukemia inhibitory factor (10 ng/ml), and then radiation in various doses were emitted to the treated cells. Finally, an xCelligence real time cell analyzer was used to detect the cell growth at a certain time point after this emission.

[4] = test system: nasopharyngeal cancer cell; assay: Caspase3/7 positive cells after substance treatment and radiation in 4 Gy; format: cell-based; conditions: radiation 4 Gy; 96th hour after emission; LIF versus sLIFR treatment; FIG. 4D
[5] = test system: CNE1 cells or TW06 cells; assay: Cell survival after substance treatment and radiation in 4 Gy (xCelligence); format: cell-based; conditions: radiation 4 Gy, sLIFR 1 μg/ml, LIF 10 ng/ml, FIG. 4C
Method: In another aspect, 6×10^3 CNE1 cells or TW06 cells were seeded, and then cultivated at 37° C. overnight. The cultivated cells were treated with PBS, a soluble leukemia inhibitory factor receptor (1 μg/ml), leukemia inhibitory factor (10 ng/ml), or leukemia inhibitory factor plus a soluble leukemia inhibitory factor receptor. After which, radiation in 4 Gy were emitted to the treated cells. Finally, an xCelligence real time cell analyzer was used to detect the cell survival at a certain time point after this emission.

[6] = test system: ATM, p53, γH2AX, NBS1 or CDC25C; assay: Western blotting of apoptosis-related and DNA damage-related proteins after radiation in 4 Gy; format: cell-based; conditions: TW06 and CNE1 cells; radiation 4 Gy; 10th minute following emission; sLIFR versus LIF; FIGS. 4E, 4F
[7] = test system: TW06 cells; assay: Growth of nasopharyngeal cancer cell in vitro (xCelligence real time cell analyzer); format: cell-based; conditions: sLIFR 1 μg/ml, LIF 10 ng/ml, compared among PBS, sLIFR plus LIF, FIG. 3A
Method: 6×10^3 TW06 cells were seeded, and then cultivated at 37° C. overnight. These cells were treated with PBS, a soluble leukemia inhibitory factor receptor (1 μg/ml), leukemia inhibitory factor (10 ng/ml), or a soluble leukemia inhibitory factor receptor plus leukemia inhibitory factor. After which, an xCelligence real time cell analyzer (Roche Applied Science) was used to detect the cell growth at a certain time point after this treatment.

Molecule: leukemia inhibitory factor: a cytokine belonging to the interleukin-6 family and mediating cell growth through inhibition of cell differentiation
- tumor volume of the mouse with radiation emission [1]: the biggest
- tumor volume of the mouse [2]: the biggest
- IC50 value of the radiation for the treated cells ([3]; 48th hour after radiation emission (PBS 1.5 Gy)): 3.7 Gy
- IC50 value of the radiation for the treated cells ([3]; 55th hour after radiation emission (PBS 1.3 Gy)): 5.8 Gy
- growth of cells with radiation emission ([3]; radiation in various doses, versus PBS, FIG. 4A): more obvious than that with PBS treatment and radiation emission
- Caspase3/7 expression level [4]: low Caspase3/7 expression level

B1: soluble leukemia inhibitory factor receptor: non-transmembrane protein (soluble receptor) that can bind leukemia inhibitory factor (protein, UniProt P42702 45-833, looked up)
extracellular domain: QKKGAPHDLKCVTNNLQVWNCSWKAPSGTGRGTDYEVCIENRSRSCYQLEKTSIKIPALSHGDYEITINSLHDFGSSTSKFTLNEQNVSLIPDTPEILNLSADFSTSTLYLKWNDRGSVFPHRSNVIWEIKVLRKESMELVKLVTHNTTLNGKDTLHHWSWASDMPLECAIHFVEIRCYIDNLHFSGLEEWSDWSPVKNISWIPDSQTKVFPQDKVILVGSDITFCCVSQEKVLSALIGHTNCPLIHLDGENVAIKIRNISVSASSGTNVVFTTEDNIFGTVIFAGYPPDTPQQLNCETHDLKEIICSWNPGRVTALVGPRATSYTLVESFSGKYVRLKRAEAPTNESYQLLFQMLPNQEIYNFTLNAHNPLGRSQSTILVNITEKVYPHTPTSFKVKDINSTAVKLSWHLPGNFAKINFLCEIEIKKSNSVQEQRNVTIKGVENSSYLVALDKLNPYTLYTFRIRCSTETFWKWSKWSNKKQHLTTEASPSKGPDTWREWSSDGKNLIIYWKPLPINEANGKILSYNVSCSSDEETQSLSEIPDPQHKAEIRLDKNDYIISVVAKNSVGSSPPSKIASMEIPNDDLKIEQVVGMGKGILLTWHYDPNMTCDYVIKWCNSSRSEPCLMDWRKVPSNSTETVIESDEFRPGIRYNFFLYGCRNQGYQLLRSMIGYIEELAPIVAPNFTVEDTSADSILVKWEDIPVEELRGFLRGYLFYFGKGERDTSKMRVLESGRSDIKVKNITDISQKTLRIADLQGKTSYHLVLRAYTDGGVGPEKSMYVVTKENS
modifications: extracellular domain
- tumor volume of the mouse with radiation emission [1]: the smallest
- tumor volume of the mouse [2]: the smallest
- growth of cells with radiation emission [5]: the most unobvious
- activation/phosphorylation of apoptosis-related and DNA damage-related proteins [6]: activated/phosphorylated more strongly
- growth of cells [7]: the most unobvious
